# Test results reported in ChEMBL document CHEMBL5096179, “Small molecule approaches to treat autoimmune and inflammatory diseases (Part II): Nucleic acid sensing antagonists and inhibitors” (Bioorg Med Chem Lett, 2021).
# Experiments:
# THP-1 [1] = test: Cytotoxicity against human THP-1 cells assessed as cell growth inhibition; format: functional, cell-based
# [2] = Cytotoxicity against human THP1-Dual KO-IFNAR2 cells assessed as cell growth inhibition; format: functional, cell-based
# Toll-like receptor 8 [3] = biological target: T1, Toll-like receptor 8 (Homo sapiens, UniProt Q9NR97); test: Antagonist activity at R848 stimulated TRL8 overexpressed in HEK293 cells measured after 20 to 24 hrs by SEAP reporter assay; format: cell-based
# T1 sequence (Q9NR97 whole entry): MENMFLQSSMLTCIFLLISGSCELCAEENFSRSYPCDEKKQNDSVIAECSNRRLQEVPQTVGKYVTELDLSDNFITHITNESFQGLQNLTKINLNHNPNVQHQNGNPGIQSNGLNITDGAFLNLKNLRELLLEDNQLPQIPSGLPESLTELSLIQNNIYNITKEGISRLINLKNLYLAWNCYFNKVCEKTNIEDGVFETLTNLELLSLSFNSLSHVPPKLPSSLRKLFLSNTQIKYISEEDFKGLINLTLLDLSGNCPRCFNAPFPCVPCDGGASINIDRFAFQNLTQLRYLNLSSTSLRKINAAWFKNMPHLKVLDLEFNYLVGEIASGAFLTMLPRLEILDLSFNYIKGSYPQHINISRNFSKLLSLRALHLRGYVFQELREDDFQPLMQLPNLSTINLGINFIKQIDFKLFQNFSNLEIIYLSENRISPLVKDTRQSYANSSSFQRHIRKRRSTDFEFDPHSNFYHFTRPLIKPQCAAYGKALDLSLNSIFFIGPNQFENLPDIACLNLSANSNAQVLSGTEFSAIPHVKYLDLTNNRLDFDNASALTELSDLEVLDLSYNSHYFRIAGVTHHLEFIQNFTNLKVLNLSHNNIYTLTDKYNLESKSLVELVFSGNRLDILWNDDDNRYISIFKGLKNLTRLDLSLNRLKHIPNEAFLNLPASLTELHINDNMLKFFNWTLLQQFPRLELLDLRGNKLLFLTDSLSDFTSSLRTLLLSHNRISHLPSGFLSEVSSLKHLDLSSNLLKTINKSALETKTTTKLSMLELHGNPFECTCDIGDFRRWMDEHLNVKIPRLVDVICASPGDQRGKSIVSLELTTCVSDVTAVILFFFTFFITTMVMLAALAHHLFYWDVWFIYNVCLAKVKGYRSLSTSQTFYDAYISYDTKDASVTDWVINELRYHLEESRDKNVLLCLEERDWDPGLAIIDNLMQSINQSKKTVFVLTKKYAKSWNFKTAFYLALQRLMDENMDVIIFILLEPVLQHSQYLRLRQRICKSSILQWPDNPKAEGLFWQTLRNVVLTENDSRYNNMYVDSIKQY
# RAW264.7 = test: Cytotoxicity against mouse RAW264.7 cells assessed as cell growth inhibition measured after 24 hrs by Celltiter-Glo assay; format: functional, cell-based; details: RAW264.7, 24 h
# Cyclic GMP-AMP synthase [4] = biological target: T2, Cyclic GMP-AMP synthase (Homo sapiens, UniProt Q8N884); test: Inhibition of N-terminal 6XHis-SUMO2 fused full length human cGAS (1 to 522 residues) expressed in […] incubated for 20 mins in presence of ATP by luminescence based analysis
# THP-1 [5] = test: Cytotoxicity against human THP-1 cells assessed as cell growth inhibition measured after 24 hrs by Celltiter-Glo assay; format: functional, cell-based; details: THP-1, 24 h
# Toll-like receptor 9 [6] = biological target: T3, Toll-like receptor 9 (Homo sapiens, UniProt Q9NR96); test: Antagonist activity at R848 stimulated TRL9 in HEK-Blue hTLR9 cells assessed as inhibition of NF kappa B/Ap-1 activation measured after 20 hrs by SEAP reporter assay; format: cell-based
# T3 sequence (Q9NR96 whole entry): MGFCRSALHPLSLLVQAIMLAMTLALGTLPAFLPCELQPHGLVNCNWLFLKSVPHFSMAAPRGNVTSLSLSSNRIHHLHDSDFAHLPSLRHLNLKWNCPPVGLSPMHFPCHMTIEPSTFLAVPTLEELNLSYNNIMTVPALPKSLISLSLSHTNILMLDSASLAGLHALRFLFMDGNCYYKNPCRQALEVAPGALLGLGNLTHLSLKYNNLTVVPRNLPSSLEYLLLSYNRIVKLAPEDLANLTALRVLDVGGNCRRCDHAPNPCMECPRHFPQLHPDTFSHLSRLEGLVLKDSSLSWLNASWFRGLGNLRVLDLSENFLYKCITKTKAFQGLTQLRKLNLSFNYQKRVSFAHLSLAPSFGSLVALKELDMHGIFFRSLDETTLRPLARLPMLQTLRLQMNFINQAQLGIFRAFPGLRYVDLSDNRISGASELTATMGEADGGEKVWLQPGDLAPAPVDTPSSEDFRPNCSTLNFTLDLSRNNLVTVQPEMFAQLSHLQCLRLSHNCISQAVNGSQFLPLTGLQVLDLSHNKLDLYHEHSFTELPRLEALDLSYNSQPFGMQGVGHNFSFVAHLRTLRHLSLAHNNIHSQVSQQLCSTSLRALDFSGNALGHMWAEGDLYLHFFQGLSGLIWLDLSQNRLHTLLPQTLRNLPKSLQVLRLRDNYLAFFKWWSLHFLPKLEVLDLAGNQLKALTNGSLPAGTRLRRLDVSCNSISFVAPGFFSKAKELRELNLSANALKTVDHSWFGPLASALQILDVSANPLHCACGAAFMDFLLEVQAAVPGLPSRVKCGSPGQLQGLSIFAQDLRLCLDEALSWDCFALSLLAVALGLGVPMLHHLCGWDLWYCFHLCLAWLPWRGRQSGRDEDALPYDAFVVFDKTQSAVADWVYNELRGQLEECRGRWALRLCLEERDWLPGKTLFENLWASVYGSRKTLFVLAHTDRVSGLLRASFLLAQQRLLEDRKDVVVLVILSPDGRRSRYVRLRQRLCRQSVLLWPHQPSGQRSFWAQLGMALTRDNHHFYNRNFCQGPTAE
# Toll-like receptor 8 [7] = biological target: T1, Toll-like receptor 8; test: Antagonist activity at R848 stimulated TRL8 in HEK-Blue hTLR8 cells assessed as inhibition of NF kappa B/Ap-1 activation measured after 20 hrs by SEAP reporter assay; format: cell-based
# Toll-like receptor 7 [8] = biological target: T4, Toll-like receptor 7 (Homo sapiens, UniProt Q9NYK1); test: Antagonist activity at R848 stimulated TRL7 in HEK-Blue hTLR7 cells assessed as inhibition of NF kappa B/Ap-1 activation measured after 20 hrs by SEAP reporter assay; format: cell-based
# T4 sequence (Q9NYK1 whole entry): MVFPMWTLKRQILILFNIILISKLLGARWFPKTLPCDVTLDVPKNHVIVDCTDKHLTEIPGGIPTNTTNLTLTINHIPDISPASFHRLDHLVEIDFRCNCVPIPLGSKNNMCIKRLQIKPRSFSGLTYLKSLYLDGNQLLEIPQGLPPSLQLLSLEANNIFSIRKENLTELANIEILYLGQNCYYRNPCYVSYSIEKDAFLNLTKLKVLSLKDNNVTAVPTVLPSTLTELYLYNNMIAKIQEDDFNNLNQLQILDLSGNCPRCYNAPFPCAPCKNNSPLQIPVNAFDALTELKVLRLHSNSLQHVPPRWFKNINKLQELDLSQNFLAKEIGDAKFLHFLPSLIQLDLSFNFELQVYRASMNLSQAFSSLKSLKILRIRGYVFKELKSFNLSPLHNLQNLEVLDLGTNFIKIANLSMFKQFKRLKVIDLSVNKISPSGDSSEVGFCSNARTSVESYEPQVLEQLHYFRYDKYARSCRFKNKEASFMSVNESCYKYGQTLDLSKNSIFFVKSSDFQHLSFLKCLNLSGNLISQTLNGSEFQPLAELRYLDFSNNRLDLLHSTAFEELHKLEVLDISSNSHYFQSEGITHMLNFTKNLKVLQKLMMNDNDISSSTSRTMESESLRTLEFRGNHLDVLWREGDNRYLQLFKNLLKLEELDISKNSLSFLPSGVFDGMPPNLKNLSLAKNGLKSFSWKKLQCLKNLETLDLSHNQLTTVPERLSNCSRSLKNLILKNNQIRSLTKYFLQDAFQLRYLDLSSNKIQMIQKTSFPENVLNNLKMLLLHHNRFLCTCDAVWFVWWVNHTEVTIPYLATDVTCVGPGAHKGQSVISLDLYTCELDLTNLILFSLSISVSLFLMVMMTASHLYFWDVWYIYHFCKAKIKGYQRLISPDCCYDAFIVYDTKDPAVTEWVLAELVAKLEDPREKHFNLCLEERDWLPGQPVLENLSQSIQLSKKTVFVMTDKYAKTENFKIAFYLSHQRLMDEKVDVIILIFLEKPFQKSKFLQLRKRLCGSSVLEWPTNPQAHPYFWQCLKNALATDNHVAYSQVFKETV
# [9] = biological target: Stimulator of interferon genes protein (Homo sapiens, UniProt Q86WV6); test: Binding affinity to wild-type human STING CTD (149 to 379 residues) expressed in Escherichia coli BL21 (DE3) assessed as dissociation constant by isothermal titration calorimetry assay
# IMR-90 = test: Cytotoxicity against human IMR-90 cells assessed as inhibition of IFN-beta production by MTS assay; format: functional, cell-based
# Cyclic GMP-AMP synthase [10] = biological target: T2, Cyclic GMP-AMP synthase; test: Inhibition of cGAS expressed in human THP-1 cells assessed as reduction of IFN-beta expression by ELISA assay; format: cell-based
# Toll-like receptor 9 [11] = biological target: T3, Toll-like receptor 9; test: Antagonist activity at TLR9 (unknown origin)
# THP-1 [12] = test: Cytotoxicity against human THP-1 cells assessed as cell growth inhibition measured after 24 hrs by Annexin-V staining based flow cytometry analysis; format: functional; details: THP-1, 24 h
# Toll-like receptor 7 [13] = biological target: T4, Toll-like receptor 7; test: Antagonist activity at TLR7 in human PBMC incubated for 3 hrs by TR-FRET assay; format: cell-based
# Cyclic GMP-AMP synthase [14] = biological target: T2, Cyclic GMP-AMP synthase; test: Inhibition of full-length human cGAS by fluorescence polarization
# [15] = Inhibition of RANTES secretion in mouse Trex1-knockout bone marrow-derived macrophages incubated for 24 hrs by celltiter-glo assay; format: functional, cell-based; details: BMDM
# Cyclic GMP-AMP synthase [16] = biological target: T2, Cyclic GMP-AMP synthase; test: Antagonist activity at N-terminal 6XHis tagged human cGAS (155 to 522 residues) expressed in Escherichia coli BL21 DE3 Rosetta 2 in presence of ATP by luciferase based assay
# [17] = Inhibition of MCP-1 secretion in mouse Trex1-knockout bone marrow-derived macrophages incubated for 24 hrs by celltiter-glo assay; format: functional, cell-based; details: BMDM
# [18] = biological target: NACHT, LRR and PYD domains-containing protein 3 (Mus musculus, UniProt Q8R4B8); test: Inhibition of NLRP3 inflammasome activation in LPS-primed C57BL/6 mouse bone marrow derived macrophages incubated for 30 mins in presence of ATP by immunoblotting analysis; format: cell-based, Macrophage
# Chain of NACHT, LRR and PYD domains-containing protein 3 (Q8R4B8 whole entry, the tested form may be a part): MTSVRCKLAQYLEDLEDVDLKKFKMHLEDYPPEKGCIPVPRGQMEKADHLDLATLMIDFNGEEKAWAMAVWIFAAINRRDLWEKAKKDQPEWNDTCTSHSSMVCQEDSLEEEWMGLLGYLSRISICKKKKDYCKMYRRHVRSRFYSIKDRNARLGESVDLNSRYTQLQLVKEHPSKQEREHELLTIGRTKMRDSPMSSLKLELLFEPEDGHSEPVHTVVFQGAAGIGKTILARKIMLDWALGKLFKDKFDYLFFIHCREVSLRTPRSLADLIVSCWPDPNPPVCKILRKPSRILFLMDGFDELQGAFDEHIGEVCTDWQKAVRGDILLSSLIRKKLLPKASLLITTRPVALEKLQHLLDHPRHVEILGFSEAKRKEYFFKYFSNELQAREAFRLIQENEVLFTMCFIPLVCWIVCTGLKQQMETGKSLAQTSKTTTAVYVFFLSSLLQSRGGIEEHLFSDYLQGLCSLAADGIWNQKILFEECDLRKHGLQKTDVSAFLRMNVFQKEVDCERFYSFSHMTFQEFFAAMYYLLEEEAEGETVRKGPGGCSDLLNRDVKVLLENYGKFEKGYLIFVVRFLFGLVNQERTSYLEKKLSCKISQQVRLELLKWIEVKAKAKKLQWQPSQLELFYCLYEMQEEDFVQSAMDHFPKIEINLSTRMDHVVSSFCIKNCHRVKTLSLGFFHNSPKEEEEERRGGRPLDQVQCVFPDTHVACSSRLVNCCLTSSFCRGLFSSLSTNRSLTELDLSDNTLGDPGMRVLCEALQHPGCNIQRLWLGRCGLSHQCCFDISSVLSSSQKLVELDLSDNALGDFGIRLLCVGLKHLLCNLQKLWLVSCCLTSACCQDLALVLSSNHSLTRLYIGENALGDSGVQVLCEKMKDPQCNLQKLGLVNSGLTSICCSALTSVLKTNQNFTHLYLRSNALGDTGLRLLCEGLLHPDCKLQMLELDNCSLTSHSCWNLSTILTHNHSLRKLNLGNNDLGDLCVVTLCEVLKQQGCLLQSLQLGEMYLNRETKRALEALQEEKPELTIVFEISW
# T2 sequence (Q8N884 whole entry, the tested form may be a part): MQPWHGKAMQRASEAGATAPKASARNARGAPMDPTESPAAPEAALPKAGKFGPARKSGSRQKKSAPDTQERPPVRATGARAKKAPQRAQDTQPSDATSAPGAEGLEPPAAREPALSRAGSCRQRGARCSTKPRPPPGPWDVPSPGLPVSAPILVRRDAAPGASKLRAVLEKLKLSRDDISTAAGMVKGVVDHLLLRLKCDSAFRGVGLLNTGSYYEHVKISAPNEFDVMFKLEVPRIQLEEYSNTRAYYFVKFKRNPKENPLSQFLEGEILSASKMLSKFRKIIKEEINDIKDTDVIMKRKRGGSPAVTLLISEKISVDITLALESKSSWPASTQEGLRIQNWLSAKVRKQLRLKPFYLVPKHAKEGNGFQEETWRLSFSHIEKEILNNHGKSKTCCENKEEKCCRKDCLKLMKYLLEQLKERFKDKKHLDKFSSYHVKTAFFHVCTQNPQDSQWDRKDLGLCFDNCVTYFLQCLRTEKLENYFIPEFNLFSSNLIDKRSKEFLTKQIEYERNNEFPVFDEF
# Chain of Stimulator of interferon genes protein (Q86WV6 whole entry, the tested form may be a part): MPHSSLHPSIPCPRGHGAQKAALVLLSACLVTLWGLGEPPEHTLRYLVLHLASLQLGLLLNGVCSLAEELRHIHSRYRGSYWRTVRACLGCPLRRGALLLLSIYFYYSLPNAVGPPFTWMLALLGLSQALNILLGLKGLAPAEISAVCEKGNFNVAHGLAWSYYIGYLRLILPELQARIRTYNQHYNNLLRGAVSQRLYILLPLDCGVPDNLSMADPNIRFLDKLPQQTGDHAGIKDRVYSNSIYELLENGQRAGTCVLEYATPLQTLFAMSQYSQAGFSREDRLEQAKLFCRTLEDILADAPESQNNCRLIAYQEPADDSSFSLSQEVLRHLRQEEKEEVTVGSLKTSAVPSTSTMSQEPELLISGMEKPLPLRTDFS
structure (smiles),measurement,setting,value
COC(=O)[C@H](Cc1ccccc1)Nc1nc(NCc2nc3cc(F)ccc3[nH]2)nc(Nc2cccc(CN3CCN(C(=O)c4nccnc4O)CC3)c2)n1,IC50,THP-1 [1],20 µM
CCCCc1ccc(Nc2c(Nc3c[nH]c4ccccc34)c(=O)c2=O)cc1,IC50,[2],0.2 µM
Cc1cccc(-c2ccnc3c(C(N)=O)cnn23)c1,IC50,Toll-like receptor 8 [3],0.067 µM
CCCCc1ccc(S(N)(=O)=Nc2c[nH]c3ccccc23)cc1 (stereo not drawn),IC50,[2],0.04 µM
Nc1ccc(-c2cc(Cl)c(Cl)c3[nH]c4c(c23)CN(C(=O)CO)CC4)cn1,IC50,RAW264.7,< 1 µM
O=C(O)c1n[nH]c(-n2cnnc2)n1,IC50,Cyclic GMP-AMP synthase [4],29.9 µM
O=C(Nc1c[nH]c2cc(F)c(F)cc12)c1ncn(Cc2ccc(C(F)(F)F)cc2)n1,IC50,[2],0.04 µM
O=C(Nc1cc(-c2ccccc2)ccn1)c1[nH]ncc1[N+](=O)[O-],IC50,THP-1 [5],2.63 µM
COC12CNCC1CN(c1ccc3c(c1)CN1[C@H](C)CN(c4ccc(C#N)c5ncccc45)C[C@H]31)C2 (stereo partly drawn),IC50,Toll-like receptor 9 [6],< 0.032 µM
same,IC50,Toll-like receptor 8 [7],< 0.003 µM
same,IC50,Toll-like receptor 7 [8],< 0.003 µM
CC[C@@H]1CC(=O)[C@@H]2[C@H](Cl)[C@H](Cl)CN2C(=O)[C@H](CC)NC(=O)C[C@H](c2ccccc2)NC(=O)[C@H](CO)NC1=O,Kd,[9],0.053 µM
same,IC50,IMR-90,10.8 µM
Cc1nc(N2C[C@@H](CC(=O)Nc3ccncc3)C[C@H]2C(=O)O)c2oc3ccccc3c2n1,IC50,Cyclic GMP-AMP synthase [10],13 µM
CNCc1ccc(C(=O)Nc2nc(N3CCN(C4CCCC4)CC3)c3ncn(CCCN4CCCC4)c3n2)cc1,IC50,Toll-like receptor 9 [11],0.005 µM
COc1ccc2nc3cc(N)ccc3c(N(C)CCCN(C)c3ccncc3)c2c1,IC50,THP-1 [12],14 µM
CCN(C)CC(=O)NC12CCC(Cn3nc(C)c4c3CCN(c3cc(C)nc5c3cnn5C)C4)(CC1)CC2,IC50,Toll-like receptor 7 [13],< 0.0005 µM
Cc1[nH]n2c(-c3ccccc3)c(C#N)nc2c(=O)c1-c1cccc(Cl)c1,IC50,Cyclic GMP-AMP synthase [14],< 1 µM
same,IC50,THP-1 [1],< 10 µM
CCCCc1ccc(NC(=O)Nc2c[nH]c3ncc(F)cc23)cc1,IC50,[2],0.04 µM
O=C(O)c1cccc(NC(=O)c2n[nH]c(-n3cnnc3)n2)c1,IC50,Cyclic GMP-AMP synthase [4],13.1 µM
COc1cccc2oc(-c3c(C#N)[nH]c4c(-c5ccccc5)c(C(F)(F)F)nn4c3=O)nc12,IC50,[15],1.25 µM
same,IC50,Cyclic GMP-AMP synthase [16],< 20 µM
same,IC50,[17],6.97 µM
Cc1cc(N2CCOC3(CN(C[C@H]4CN(c5ccc(C#N)c6ncccc56)C[C@@H](C)O4)C3)C2)cc(C)n1,IC50,Toll-like receptor 9 [6],< 0.032 µM
same,IC50,Toll-like receptor 8 [7],< 0.003 µM
same,IC50,Toll-like receptor 7 [8],< 0.003 µM
COc1ccc(/C=C/C(=O)Nc2ccccc2C(=O)O)cc1OC,IC50,[18],25 µM
